Source: PMC5520195 (Acta Pharmacologica Sinica, 2017)

Columns and labels:
[1] = Plasma pharmacokinetics of DOX after iv administration; assay type: in vivo; conditions: DOX in plasma, BALB/c mice, 5 mg DOX/kg
[2] = test system: 4T1.2 mouse breast cancer cells; experiment: MTT cytotoxicity assay; assay type: cell-based; conditions: 4T1.2 cells, 72 h

**Q.** Which “AUC0–infinity” value [1] does the source give for COc1cccc2c1C(=O)c1c(O)c3c(c(O)c1C2=O)C[C@@](O)(C(=O)CO)C[C@@H]3O[C@H]1C[C@H](N)[C@H](O)[C@H](C)O1 [DOX, doxorubicin] here?
**A.** 2930 ng·h/mL

**Q.** And the CL [1]?
**A.** 28.8 mL/min/kg

**Q.** And the Cmax [1]?
**A.** 6270 ng/mL

**Q.** And the “cytotoxicity (MTT)” value [2]?
**A.** cytotoxic effect on tumor cells in a concentration-dependent manner
